Where two headings read alike, the source gives them in different places.
How the values were obtained:
[1] = in vitro; conditions: human
Protocol: Thus, we used the methylthiazolyl tetrazolium (MTT) method [30] to perform a neurocyte (SH-SY5Y) toxicity test in vitro.
The SH-SY5Y cell line was seeded on 96-well plates at a density of 10^4 cells/well. […] Subsequently, 10 μL of 5 mg/mL MTT solution was added to each well and further incubated for 4 h at 37 °C. The solution was carefully removed, and each well was treated with DMSO (200 μL for each well). The optical density of the wells was then read on the microplate reader at 570 nm. All the tested compounds were performed in triplicate.

[2] = Oxygen radical absorbance capacity-fluorescein (ORAC-FL) assay; conditions: Trolox equivalents, Trolox = 1
Protocol: Vitamin E analogue Trolox was used as the standard, and the results were expressed as Trolox equivalents.
The anti-oxidation activity was tested by using the oxygen radical absorbance capacity-fluorescein (ORAC-FL) assay [25, 32]. All the ORAC-assays measure antioxidant scavenging activity against peroxyl radical induced by 2,2′-azobis (2-amidinopropane) dihydrochloride (AAPH) at 37 °C.
The reaction was conducted with 75 mM phosphate buffer (pH 7.4) and the final reaction mixture was 200 μL. Fluorescein (120 μL, 300 nM final concentration) and antioxidant (20 μL) were placed in the wells of a black 96-well plate, and the mixture was incubated for 15 min at 37 °C. Then AAPH solution (60 μL, 12 mM final concentration) was added rapidly. […] 6-hydroxy-2,5,7,8-tetramethylchroman-2-carboxylic acid (Trolox) was used as a standard (1–5 μM, final concentration). A blank (FL + AAPH) using phosphate buffer instead of antioxidant and Trolox calibration were carried out in each assay. The samples were measured at different concentrations (1–5 μM), and at least three independent assays were performed for each sample. Fluorescence measurements were normalized based on the curve of the blank (without antioxidant). Antioxidant curves (fluorescence versus time) were normalized to the curve of the blank in the same assay, and then the area under the fluorescence decay curve (AUC) was calculated. The net AUC of a sample was obtained by subtracting the AUC from the blank. ORAC-FL values were expressed as Trolox equivalents by using the standard curve calculated for each sample, where the ORAC-FL value of Trolox was taken as one, indicating the antioxidant potency of the test compounds.

[3] = target: T1, BuChE (Equus caballus, UniProt P81908); test: biochemical
T1 construct: purchased Aladdin B128570-2KU; host or cells: equine serum
Protocol: (§1) Acetylcholinesterase (AChE, E.C. 3.1.1.7, obtained from electric eel) was purchased from Sigma-Aldrich (St. Louis, MO, USA, product code: C3389-2KU). Butyrylcholinesterase (BuChE, E.C. 3.1.1.8, obtained from equine serum) was purchased from Aladdin (Shanghai, China, product code: B128570-2KU). […] The compounds were dissolved in a minimum volume of DMSO (1%) and then diluted in 0.1 M KH2PO4/K2HPO4 buffer (pH 8.0) to provide a final concentration range.
(§2) Enzyme solutions were prepared to give 2.0 units/ mL in 2 mL aliquots. The assay medium contained phosphate buffer, pH 8.0 (1 mL), 50 μL of 0.01 M DTNB, 10 μL of enzyme, and 50 μL of 0.01 M substrate (ATC). The substrate was added to the assay medium containing enzyme, buffer, and DTNB with inhibitor after 15 min of incubation time. […] In vitro BuChE assay used the similar method described above [31]. Each concentration was assayed in triplicate.

[4] = target: T2, AChE (Electrophorus electricus, UniProt O42275); test: biochemical; conditions: for Selective Index: Selectivity Index = IC50 (BuChE)/IC50 (AChE)
T2 construct: purchased Sigma-Aldrich C3389-2KU
T2 sequence (O42275 24-633): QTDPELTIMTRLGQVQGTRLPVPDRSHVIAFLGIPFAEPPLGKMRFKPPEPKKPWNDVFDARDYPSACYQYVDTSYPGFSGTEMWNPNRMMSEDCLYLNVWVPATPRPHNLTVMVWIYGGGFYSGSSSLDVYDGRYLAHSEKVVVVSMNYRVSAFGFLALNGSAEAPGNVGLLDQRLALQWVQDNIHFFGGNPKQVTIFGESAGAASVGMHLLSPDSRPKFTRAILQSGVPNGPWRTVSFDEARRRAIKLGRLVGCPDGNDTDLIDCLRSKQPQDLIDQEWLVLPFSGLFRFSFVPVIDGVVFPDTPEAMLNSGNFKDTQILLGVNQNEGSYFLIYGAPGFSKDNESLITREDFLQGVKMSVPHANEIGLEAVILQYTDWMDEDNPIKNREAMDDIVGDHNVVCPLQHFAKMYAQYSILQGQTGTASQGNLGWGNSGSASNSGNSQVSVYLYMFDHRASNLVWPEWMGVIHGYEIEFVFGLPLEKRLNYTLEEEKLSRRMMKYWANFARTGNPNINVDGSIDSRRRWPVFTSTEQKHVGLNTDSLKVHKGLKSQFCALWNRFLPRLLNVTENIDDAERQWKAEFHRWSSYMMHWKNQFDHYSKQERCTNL
Protocol: as §1, §2

[5] = BuChE from equine serum, means ± SEM of three experiments, read-out: BuChE Inhibition, (IC50)
[6] = AChE from electric eel, means ± SEM of three experiments, read-out: AchE Inhibition, (IC50)

T1 sequence (P81908 whole entry): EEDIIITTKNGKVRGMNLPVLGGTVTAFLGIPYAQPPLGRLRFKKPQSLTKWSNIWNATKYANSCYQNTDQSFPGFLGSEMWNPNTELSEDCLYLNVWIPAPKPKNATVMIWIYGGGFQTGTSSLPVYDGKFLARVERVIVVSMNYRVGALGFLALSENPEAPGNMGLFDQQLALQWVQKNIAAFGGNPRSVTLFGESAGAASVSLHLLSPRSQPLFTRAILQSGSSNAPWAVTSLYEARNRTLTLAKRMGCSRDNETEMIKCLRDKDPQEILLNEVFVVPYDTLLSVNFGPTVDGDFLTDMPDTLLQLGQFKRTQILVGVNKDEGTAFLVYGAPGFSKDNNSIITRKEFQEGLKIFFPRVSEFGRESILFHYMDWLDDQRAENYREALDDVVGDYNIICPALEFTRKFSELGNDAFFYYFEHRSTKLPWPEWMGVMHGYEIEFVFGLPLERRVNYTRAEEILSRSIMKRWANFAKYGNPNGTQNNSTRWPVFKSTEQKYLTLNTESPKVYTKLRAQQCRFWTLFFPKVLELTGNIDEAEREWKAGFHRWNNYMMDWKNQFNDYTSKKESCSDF

| SMILES | viability at 48 h, 1 µM [1] | viability at 48 h, 10 µM [1] | viability at 48 h, 50 µM [1] | viability at 48 h, 100 µM [1] | ORAC [2] | IC50 [3, 5] | IC50 [4, 6] | Selective Index [4] | IC50 [3] | IC50 [4] |
| --- | --- | --- | --- | --- | --- | --- | --- | --- | --- | --- |
| COc1ccc(C2CC(=O)c3c(O)cc(OCC(=O)NCc4ccc(Cl)cc4)cc3O2)cc1O (centres unmarked) [Compound 4b, N-(4-Chlorobenzyl)-2-[5-hydroxy-2-(3-hydroxy-4-methoxyphenyl)-4-oxochroman-7-yloxy]-acetamide] | 103 ± 4.56% | 95.9 ± 3.98% | 83.7 ± 4.12% | 65.4 ± 5.33% | 2.7 μM of Trolox equivalent/μMof tested compound | 3500 ± 66 nM | 13.6 ± 0.78 nM | 258 | – | – |
| COc1ccc(C2CC(=O)c3c(O)cc(OCC(=O)NCc4ccc(F)cc4)cc3O2)cc1O (centres unmarked) [Compound 4c, N-(4-Fluorobenzyl)-2-[5-hydroxy-2-(3-hydroxy-4-methoxyphenyl)-4-oxochroman-7-yloxy]-acetamide] | 98.5 ± 4.98% | 97.5 ± 3.76% | 83.8 ± 2.32% | 58.8 ± 3.97% | 2.9 μM of Trolox equivalent/μMof tested compound | 2080 ± 76 nM | 12.4 ± 0.81 nM | 167 | – | – |
| COc1ccc(C2CC(=O)c3c(O)cc(OCC(=O)NCc4ccc(Br)cc4)cc3O2)cc1O (centres unmarked) [Compound 4d, N-(4-Bromobenzyl)-2-[5-hydroxy-2-(3-hydroxy-4-methoxyphenyl)-4-oxochroman-7-yloxy]-acetamide] | 99.9 ± 5.76% | 99.5 ± 6.23% | 86.2 ± 5.14% | 70 ± 4.78% | 2.6 μM of Trolox equivalent/μMof tested compound | 2130 ± 64 nM | 15.7 ± 0.95 nM | 136 | – | – |
| COc1ccc(CNC(=O)COc2cc(O)c3c(c2)OC(c2ccc(OC)c(O)c2)CC3=O)cc1 (centres unmarked) [Compound 4e, 2-[5-Hydroxy-2-(3-hydroxy-4-methoxyphenyl)-4-oxochroman-7-yloxy]-N-(4-methoxy-benzyl)acetamide] | 105 ± 3.87% | 98.3 ± 5.27% | 87.1 ± 6.37% | 66.5 ± 4.95% | 2.8 μM of Trolox equivalent/μMof tested compound | 3210 ± 92 nM | 17.9 nM | 179 | – | – |
| COc1ccc(C2CC(=O)c3c(O)cc(OCC(=O)NCc4ccccc4Cl)cc3O2)cc1O (centres unmarked) [Compound 4g, N-(2-Chlorobenzyl)-2-[5-hydroxy-2-(3-hydroxy-4-methoxyphenyl)-4-oxochroman-7-yloxy]acetamide] | 97.8 ± 6.83% | 95.7 ± 5.67% | 79.3 ± 4.33% | 70.8 ± 5.32% | – | 1630 ± 78 nM | 14 ± 0.95 nM | 116 | – | – |
| COc1ccc(C2CC(=O)c3c(O)cc(OCC(=O)NCc4ccccc4F)cc3O2)cc1O (centres unmarked) [Compound 4h, N-(2-Fluorobenzyl)-2-[5-hydroxy-2-(3-hydroxy-4-methoxyphenyl)-4-oxochroman-7-yloxy]-acetamide] | 100 ± 6.52% | 98.8 ± 5.38% | 75.8 ± 3.83% | 60.6 ± 4.27% | 2.5 μM of Trolox equivalent/μMof tested compound | 2800 ± 39 nM | 15.2 ± 2.03 nM | 184 | – | – |
| COc1ccc(C2CC(=O)c3c(O)cc(OCC(=O)NCc4ccccc4OC)cc3O2)cc1O (centres unmarked) [Compound 4i, 2-[5-Hydroxy-2-(3-hydroxy-4-methoxyphenyl)-4-oxochroman-7-yloxy]-N-(2-methoxy-benzyl)acetamide] | 97.8 ± 6.32% | 96.7 ± 5.21% | 75 ± 4.12% | 55 ± 5.69% | 2.7 μM of Trolox equivalent/μMof tested compound | 1990 ± 134 nM | 19.2 ± 0.66 nM | 103 | – | – |
| COc1cccc(CNC(=O)COc2cc(O)c3c(c2)OC(c2ccc(OC)c(O)c2)CC3=O)c1 (centres unmarked) [Compound 4j, 2-[5-Hydroxy-2-(3-hydroxy-4-methoxyphenyl)-4-oxochroman-7-yloxy]-N-(3-methoxy-benzyl)acetamide] | 103 ± 6.47% | 98.2 ± 7.01% | 84.2 ± 3.2% | 70.8 ± 5.36% | 3.1 μM of Trolox equivalent/μMof tested compound | 2460 ± 83 nM | 22.3 ± 1.54 nM | 110 | – | – |
| COc1ccc(C2CC(=O)c3c(O)cc(OCC(=O)NCCc4ccccc4)cc3O2)cc1O (centres unmarked) [Compound 4k, 2-[5-Hydroxy-2-(3-hydroxy-4-methoxyphenyl)-4-oxochroman-7-yloxy]-N-phenethyl-acetamide] | 98.9 ± 6.3% | 96.5 ± 2.98% | 81 ± 3.22% | 68.5 ± 4.92% | 2.7 μM of Trolox equivalent/μMof tested compound | 3010 ± 74 nM | 11.9 ± 1.12 nM | 254 | – | – |
| COc1ccc(CCNC(=O)COc2cc(O)c3c(c2)OC(c2ccc(OC)c(O)c2)CC3=O)cc1 (centres unmarked) [Compound 4l, 2-[5-Hydroxy-2-(3-hydroxy-4-methoxyphenyl)-4-oxochroman-7-yloxy]-N-[2-(4-methoxy-phenyl)ethyl]acetamide] | 98.9 ± 4.07% | 94.5 ± 5.32% | 78.5 ± 3.21% | 63.2 ± 5.04% | 2.9 μM of Trolox equivalent/μMof tested compound | 2790 ± 53 nM | 19.5 ± 0.77 nM | 143 | – | – |
| COc1ccc(C2CC(=O)c3c(O)cc(OCC(=O)NCCc4ccc(Cl)cc4)cc3O2)cc1O (centres unmarked) [Compound 4m, N-[2-(4-Chlorophenyl)ethyl]-2-[5-hydroxy-2-(3-hydroxy-4-methoxyphenyl)-4-oxo-chroman-7-yloxy]acetamide] | 102 ± 6.65% | 97.3 ± 5.21% | 81.5 ± 4.01% | 64.5 ± 4.32% | 2.6 μM of Trolox equivalent/μMof tested compound | 3350 ± 66 nM | 15.7 ± 0.85 nM | 214 | – | – |
| COc1ccc(C2CC(=O)c3c(O)cc(OCC(=O)NCCc4ccc(Br)cc4)cc3O2)cc1O (centres unmarked) [Compound 4n, N-[2-(4-Bromophenyl)ethyl]-2-[5-hydroxy-2-(3-hydroxy-4-methoxyphenyl)-4-oxo-chroman-7-yloxy]acetamide] | 99.8 ± 3.89% | 96.5 ± 4.24% | 78.8 ± 5.21% | 55.6 ± 5.34% | 2.4 μM of Trolox equivalent/μMof tested compound | 1990 ± 51 nM | 17.2 ± 0.96 nM | 115 | – | – |
| COc1ccc(C2CC(=O)c3c(O)cc(OCC(=O)NCCc4ccc(F)cc4)cc3O2)cc1O (centres unmarked) [Compound 4o, N-[2-(4-Fluorophenyl)ethyl]-2-[5-hydroxy-2-(3-hydroxy-4-methoxyphenyl)-4-oxochroman-7-yloxy]-acetamide] | 101 ± 6.31% | 97.2 ± 5.09% | 81.7 ± 3.52% | 59.7 ± 6.14% | – | 2260 ± 81 nM | 13.5 ± 1.44 nM | 167 | – | – |
| COc1ccc(C2CC(=O)c3c(O)cc(OCC(=O)NCCc4ccccc4Cl)cc3O2)cc1O (centres unmarked) [Compound 4p, N-[2-(2-Chlorophenyl)ethyl]-2-[5-hydroxy-2-(3-hydroxy-4-methoxyphenyl)-4-oxo-chroman-7-yloxy]acetamide] | 99.3 ± 4.34% | 94.4 ± 3.9% | 83.1 ± 4.27% | 64.5 ± 4.82% | 2.7 μM of Trolox equivalent/μMof tested compound | 3470 ± 67 nM | 17.2 ± 0.45 nM | 201 | – | – |
| COc1cc(/C=C/C(=O)CC(=O)/C=C/c2ccc(O)c(OC)c2)ccc1O [Curcumin, curcumin, reference compound] | 95.3 ± 5.21% | 90.9 ± 4.31% | 82.1 ± 3.07% | 71.8 ± 4.21% | – | – | – | – | – | – |
| COc1ccc([C@@H]2CC(=O)c3c(O)cc(O)cc3O2)cc1O [Hesperetin, hesperetin] | 99 ± 5.87% | 93 ± 4.33% | 85.2 ± 3.43% | 67.3 ± 5.21% | – | – | – | 3 | 2900 ± 67 nM | 1020 ± 37 nM |
| Nc1c2c(nc3ccccc13)CCCC2 [Tacrine, tacrine, reference compound] | – | – | – | – | <0.1 μM of Trolox equivalent/μMof tested compound | – | – | – | – | – |

From PMC6152180, “Design, Synthesis and Evaluation of Hesperetin Derivatives as Potential Multifunctional Anti-Alzheimer Agents” (Molecules : A Journal of Synthetic Chemistry and Natural …, 2017)
